These results are taken from PubChem BioAssay AID1919010 (Molecular Pharmacology Branch, DTP, NCI, 2023).

The assay relates to Hs578T complex spheroid growth, percent test/control. Put plainly: Anticancer human tumor Hs578T cell line growth inhibition [AhR].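 For all read-outs here: luminescent viability signal as a proxy for spheroid growth; spheroids exposed to agents for one week after three days of growth.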 The note with it: for viability, T/C: stronger effect = lower value. Summed up: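 Complex tumor spheroids co-cultured with HUVEC and human MSC stroma; AhR antagonists tested in combination with standard-of-care and investigational agents. Top concentration at or near clinical Cmax (else 10 microM), half-log dilutions; growth expressed as percent test/control.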

Where [1] appears, read: curve of first compound, second compound 0.1 µM.
Where [2] appears, read: curve of first compound, second compound 0.316 µM.
Where [3] appears, read: curve of first compound, second compound 1 µM.
[4] abbreviates: curve of first compound, second compound 3.16 µM.
[5] abbreviates: curve of first compound, second compound 10 µM.
[6] abbreviates: second compound 0.1 µM, first compound 0.000949 µM.
The mark [7] stands for this setting: second compound 0.1 µM, first compound 0.003 µM.
Setting [8] is: second compound 0.1 µM, first compound 0.00949 µM.
Setting [9] is: second compound 0.1 µM, first compound 0.03 µM.
[10] abbreviates: second compound 0.1 µM, first compound 0.0949 µM.
Where [11] appears, read: second compound 0.1 µM, first compound 0.3 µM.
Where [12] appears, read: second compound 0.316 µM, first compound 0.000949 µM.
Setting [13] is: second compound 0.316 µM, first compound 0.003 µM.
Where [14] appears, read: second compound 0.316 µM, first compound 0.00949 µM.
Where [15] appears, read: second compound 0.316 µM, first compound 0.03 µM.
[16] abbreviates: second compound 0.316 µM, first compound 0.0949 µM.
Setting [17] is: second compound 0.316 µM, first compound 0.3 µM.
Where [18] appears, read: second compound 1 µM, first compound 0.000949 µM.
Where [19] appears, read: second compound 1 µM, first compound 0.003 µM.
Where [20] appears, read: second compound 1 µM, first compound 0.00949 µM.
[21] abbreviates: second compound 1 µM, first compound 0.03 µM.
Where [22] appears, read: second compound 1 µM, first compound 0.0949 µM.
[23] abbreviates: second compound 1 µM, first compound 0.3 µM.
Where [24] appears, read: second compound 3.16 µM, first compound 0.000949 µM.
The mark [25] stands for this setting: second compound 3.16 µM, first compound 0.003 µM.
[26] abbreviates: second compound 3.16 µM, first compound 0.00949 µM.
Where [27] appears, read: second compound 3.16 µM, first compound 0.03 µM.
[28] abbreviates: second compound 3.16 µM, first compound 0.0949 µM.
[29] abbreviates: second compound 3.16 µM, first compound 0.3 µM.
The mark [30] stands for this setting: second compound 10 µM, first compound 0.000949 µM.
[31] abbreviates: second compound 10 µM, first compound 0.003 µM.
Where [32] appears, read: second compound 10 µM, first compound 0.00949 µM.
Setting [33] is: second compound 10 µM, first compound 0.03 µM.
Where [34] appears, read: second compound 10 µM, first compound 0.0949 µM.
The mark [35] stands for this setting: second compound 10 µM, first compound 0.3 µM.

SMILES strings stand for the structures. Values joined by “and” are separate entries in the source; they are usually repeats but may differ in a detail not shown here. Identical values can stand only once.

By IC50 is commonly meant the midpoint of a concentration-inhibition curve. The term viability, T/C denotes the ratio of treated to control. On to `CC(C)CC(NC(=O)C(Cc1ccccc1)NC(=O)c1cnccn1)B(O)O` (centres undefined) + CC(CO)NC(=O)c1cc(-c2ccc(Cl)cc2)nn(-c2cnn(C)c2)c1=O, for which the IC50 is 4.72 nM under setting [1]; 4.44 nM under setting [2]; 4.61 nM under setting [3]; 5.03 nM under setting [4]; 3.79 nM under setting [5]. For the same molecule, the viability, T/C is 97.9% under setting [6]; 75.7% under setting [7]; 10.4% under setting [8]; 0.34% under setting [9]; 0.56% under setting [10]; 0.73% under setting [11]. For the same molecule, the viability, T/C runs as follows: under setting [12], 109%; under setting [13], 72.6%; under setting [14], 6.27%; under setting [15], 0.48%; under setting [16], 0.41%; under setting [17], 0.41%. For the same molecule, the viability, T/C reads like this: under setting [18], 102%; under setting [19], 72%; under setting [20], 13.1%; under setting [21], 0.32%; under setting [22], 0.27%; under setting [23], 0.39%. Besides, the viability, T/C reads like this: under setting [24], 102%; under setting [25], 80.1%; under setting [26], 13.2%; under setting [27], 0.29%; under setting [28], 0.26%; under setting [29], 0.35%. In addition, the viability, T/C is, setting by setting: under setting [30], 85.6%; under setting [31], 59.8%; under setting [32], 11.6%; under setting [33], 0.72%; under setting [34], 0.38%; under setting [35], 0.53%.

With `COc1cc(C2c3cc4c(cc3C(OC3OC5COC(C)OC5C(O)C3O)C3COC(=O)C23)OCO4)cc(OC)c1O` (centres undefined), the viability, T/C is, setting by setting: (compound 0.0316 µM) 85.4% and 94.6% and 92.8%; (compound 0.1 µM) 99.7% and 91.7% and 91.5%; (compound 0.316 µM) 84.1% and 88.8% and 79.9%; (compound 1 µM) 66.8% and 82.6% and 69.9%; (compound 3.16 µM) 69.5% and 79.7% and 71.9%; (compound 10 µM) 58.1% and 56.4% and 57.1%. For the setting “curve of compound”, the IC50 is over 10000 nM.

For `CCN(c1cc(-c2ccc(CN3CCOCC3)cc2)cc(C(=O)NCc2c(C)cc(C)[nH]c2=O)c1C)C1CCOCC1`, the viability, T/C runs as follows: (compound 0.00949 µM) 103% and 101% and 104%; (compound 0.03 µM) 105% and 99% and 108%; (compound 0.0949 µM) 109% and 101% and 95.7%; (compound 0.3 µM) 91.3% and 103% and 98.4%; (compound 0.949 µM) 100% and 97.4% and 94.9%; (compound 3 µM) 95.2% and 97.7% and 99.6%. In addition, where the note is “curve of compound”, the IC50 is over 3000 nM.

As to `CCc1c2c(nc3ccc(O)cc13)-c1cc3c(c(=O)n1C2)COC(=O)[C@]3(O)CC` + CC(CO)NC(=O)c1cc(-c2ccc(Cl)cc2)nn(-c2cnn(C)c2)c1=O, the IC50 was 207 nM under setting [1]; 158 nM under setting [2]; 182 nM under setting [3]; 193 nM under setting [4]; 194 nM under setting [5]. Moreover, the viability, T/C was 87.1% under setting [6]; 86.2% under setting [7]; 78.3% under setting [8]; 76.7% under setting [9]; 65% under setting [10]; 42.7% under setting [11]. Also, the viability, T/C by setting is: under setting [12], 79.3%; under setting [13], 88%; under setting [14], 82.3%; under setting [15], 66.3%; under setting [16], 58.2%; under setting [17], 42%. Moreover, the viability, T/C under setting [18] is 81.6%; the viability, T/C under setting [19] was 85%; the viability, T/C under setting [20] is 86.2%; the viability, T/C under setting [21] was 72.5%; the viability, T/C under setting [22] is 59.1%; the viability, T/C under setting [23] was 43.5%. In addition, the viability, T/C runs as follows: under setting [24], 89.3%; under setting [25], 94.5%; under setting [26], 89.9%; under setting [27], 74.9%; under setting [28], 57.5%; under setting [29], 45.5%. The viability, T/C reads like this: under setting [30], 82.5%; under setting [31], 82.7%; under setting [32], 78.1%; under setting [33], 73.3%; under setting [34], 64.8%; under setting [35], 41.2%.

Consider `CC1(C)CCC(CN2CCN(c3ccc(C(=O)NS(=O)(=O)c4ccc(NCC5CCOCC5)c([N+](=O)[O-])c4)c(Oc4cnc5[nH]ccc5c4)c3)CC2)=C(c2ccc(Cl)cc2)C1` + Cc1cncc(-c2nc(NCCc3c[nH]c4ccccc34)c3ncn(C(C)C)c3n2)c1, for which the IC50 is over 10000 nM under setting [1]; over 10000 nM under setting [2]; over 10000 nM under setting [3]; over 10000 nM under setting [4]; under 31.6 nM under setting [5]. Moreover, the viability, T/C runs as follows: (second compound 0.1 µM, first compound 0.0316 µM) 117%; (second compound 0.1 µM, first compound 0.1 µM) 118%; (second compound 0.1 µM, first compound 0.316 µM) 115%; (second compound 0.1 µM, first compound 1 µM) 94.8%; (second compound 0.1 µM, first compound 3.16 µM) 95.9%; (second compound 0.1 µM, first compound 10 µM) 82.6%. In addition, the viability, T/C (second compound 0.316 µM, first compound 0.0316 µM) is 117%; the viability, T/C (second compound 0.316 µM, first compound 0.1 µM) is 118%; the viability, T/C (second compound 0.316 µM, first compound 0.316 µM) was 112%; the viability, T/C (second compound 0.316 µM, first compound 1 µM) is 109%; the viability, T/C (second compound 0.316 µM, first compound 3.16 µM) is 105%; the viability, T/C (second compound 0.316 µM, first compound 10 µM) was 97.4%. The viability, T/C by setting is: (second compound 1 µM, first compound 0.0316 µM) 113%; (second compound 1 µM, first compound 0.1 µM) 111%; (second compound 1 µM, first compound 0.316 µM) 109%; (second compound 1 µM, first compound 1 µM) 108%; (second compound 1 µM, first compound 3.16 µM) 111%; (second compound 1 µM, first compound 10 µM) 92.8%. The viability, T/C reads like this: (second compound 3.16 µM, first compound 0.0316 µM) 49.6%; (second compound 3.16 µM, first compound 0.1 µM) 65.6%; (second compound 3.16 µM, first compound 0.316 µM) 65.5%; (second compound 3.16 µM, first compound 1 µM) 56.4%; (second compound 3.16 µM, first compound 3.16 µM) 69.2%; (second compound 3.16 µM, first compound 10 µM) 75.2%. The viability, T/C is 3.98% (second compound 10 µM, first compound 0.0316 µM); 3.8% (second compound 10 µM, first compound 0.1 µM); 4.95% (second compound 10 µM, first compound 0.316 µM); 5.32% (second compound 10 µM, first compound 1 µM); 4.95% (second compound 10 µM, first compound 3.16 µM); 8.06% (second compound 10 µM, first compound 10 µM).
